{
  "source": "BindingDB's records for doi:10.1021/acsmedchemlett.0c00015",
  "about": "(The Genomics Institute of The Novartis Research Foundation, 2020)",
  "key": {"[1]": {"experiment": "Inhibition of RET (unknown origin) transfected in mouse Ba/F3 cells assessed as reduction in cell viability incubated for 48 hrs by brightglo-luciferase reporter gene assay"}, "[2]": {"experiment": "Inhibition of BLK (unknown origin) transfected in mouse Ba/F3 cells assessed as reduction in cell viability incubated for 48 hrs by brightglo-luciferase reporter gene assay"}, "[3]": {"experiment": "Inhibition of BMX (unknown origin) transfected in mouse Ba/F3 cells assessed as reduction in cell viability incubated for 48 hrs by brightglo-luciferase reporter gene assay"}, "[4]": {"experiment": "Inhibition of FGR (unknown origin) transfected in mouse Ba/F3 cells assessed as reduction in cell viability incubated for 48 hrs by brightglo-luciferase reporter gene assay"}, "[5]": {"experiment": "Inhibition of FMS (unknown origin) transfected in mouse Ba/F3 cells assessed as reduction in cell viability incubated for 48 hrs by brightglo-luciferase reporter gene assay"}, "[6]": {"experiment": "Inhibition of KDR (unknown origin) transfected in mouse Ba/F3 cells assessed as reduction in cell viability incubated for 48 hrs by brightglo-luciferase reporter gene assay"}, "[7]": {"experiment": "Inhibition of KIT (unknown origin) transfected in mouse Ba/F3 cells assessed as reduction in cell viability incubated for 48 hrs by brightglo-luciferase reporter gene assay"}, "[8]": {"experiment": "Inhibition of LCK (unknown origin) transfected in mouse Ba/F3 cells assessed as reduction in cell viability incubated for 48 hrs by brightglo-luciferase reporter gene assay"}, "[9]": {"experiment": "Inhibition of LYN (unknown origin) transfected in mouse Ba/F3 cells assessed as reduction in cell viability incubated for 48 hrs by brightglo-luciferase reporter gene assay"}, "[10]": {"experiment": "Inhibition of MER (unknown origin) transfected in mouse Ba/F3 cells assessed as reduction in cell viability incubated for 48 hrs by brightglo-luciferase reporter gene assay"}, "[11]": {"experiment": "Inhibition of MET (unknown origin) transfected in mouse Ba/F3 cells assessed as reduction in cell viability incubated for 48 hrs by brightglo-luciferase reporter gene assay"}, "[12]": {"experiment": "Inhibition of RON (unknown origin) transfected in mouse Ba/F3 cells assessed as reduction in cell viability incubated for 48 hrs by brightglo-luciferase reporter gene assay"}, "[13]": {"experiment": "Inhibition of ROS (unknown origin) transfected in mouse Ba/F3 cells assessed as reduction in cell viability incubated for 48 hrs by brightglo-luciferase reporter gene assay"}, "[14]": {"experiment": "Inhibition of SRC (unknown origin) transfected in mouse Ba/F3 cells assessed as reduction in cell viability incubated for 48 hrs by brightglo-luciferase reporter gene assay"}, "[15]": {"experiment": "Inhibition of SYK (unknown origin) transfected in mouse Ba/F3 cells assessed as reduction in cell viability incubated for 48 hrs by brightglo-luciferase reporter gene assay"}, "[16]": {"experiment": "Inhibition of FLT1 (unknown origin) transfected in mouse Ba/F3 cells assessed as reduction in cell viability incubated for 48 hrs by brightglo-luciferase reporter gene assay"}, "[17]": {"experiment": "Inhibition of FLT3 (unknown origin) transfected in mouse Ba/F3 cells assessed as reduction in cell viability incubated for 48 hrs by brightglo-luciferase reporter gene assay"}, "[18]": {"experiment": "Inhibition of INSR (unknown origin) transfected in mouse Ba/F3 cells assessed as reduction in cell viability incubated for 48 hrs by brightglo-luciferase reporter gene assay"}, "[19]": {"experiment": "Inhibition of JAK2 (unknown origin) transfected in mouse Ba/F3 cells assessed as reduction in cell viability incubated for 48 hrs by brightglo-luciferase reporter gene assay"}, "[20]": {"experiment": "Inhibition of TIE1 (unknown origin) transfected in mouse Ba/F3 cells assessed as reduction in cell viability incubated for 48 hrs by brightglo-luciferase reporter gene assay"}, "[21]": {"experiment": "Inhibition of TRKA (unknown origin) transfected in mouse Ba/F3 cells assessed as reduction in cell viability incubated for 48 hrs by brightglo-luciferase reporter gene assay"}, "[22]": {"experiment": "Inhibition of TRKB (unknown origin) transfected in mouse Ba/F3 cells assessed as reduction in cell viability incubated for 48 hrs by brightglo-luciferase reporter gene assay"}, "[23]": {"experiment": "Inhibition of TRKC (unknown origin) transfected in mouse Ba/F3 cells assessed as reduction in cell viability incubated for 48 hrs by brightglo-luciferase reporter gene assay"}, "[24]": {"experiment": "Inhibition of FGFR1 (unknown origin) transfected in mouse Ba/F3 cells assessed as reduction in cell viability incubated for 48 hrs by brightglo-luciferase reporter gene assay"}, "[25]": {"experiment": "Inhibition of FGFR2 (unknown origin) transfected in mouse Ba/F3 cells assessed as reduction in cell viability incubated for 48 hrs by brightglo-luciferase reporter gene assay"}, "[26]": {"experiment": "Inhibition of FGFR3 (unknown origin) transfected in mouse Ba/F3 cells assessed as reduction in cell viability incubated for 48 hrs by brightglo-luciferase reporter gene assay"}, "[27]": {"experiment": "Inhibition of FGFR4 (unknown origin) transfected in mouse Ba/F3 cells assessed as reduction in cell viability incubated for 48 hrs by brightglo-luciferase reporter gene assay"}, "[28]": {"experiment": "Inhibition of IGF1R (unknown origin) transfected in mouse Ba/F3 cells assessed as reduction in cell viability incubated for 48 hrs by brightglo-luciferase reporter gene assay"}, "[29]": {"experiment": "Inhibition of TYRO3 (unknown origin) transfected in mouse Ba/F3 cells assessed as reduction in cell viability incubated for 48 hrs by brightglo-luciferase reporter gene assay"}, "[30]": {"experiment": "Inhibition of ZAP70 (unknown origin) transfected in mouse Ba/F3 cells assessed as reduction in cell viability incubated for 48 hrs by brightglo-luciferase reporter gene assay"}, "[31]": {"experiment": "Inhibition of NPM/ALK (unknown origin) transfected in mouse Ba/F3 cells assessed as reduction in cell viability incubated for 48 hrs by brightglo-luciferase reporter gene assay"}, "[32]": {"experiment": "Inhibition of KIF5B-RET (unknown origin) transfected in mouse Ba/F3 cells assessed as reduction in cell viability incubated for 48 hrs by brightglo-luciferase reporter gene assay"}, "[33]": {"experiment": "Inhibition of PDGFRbeta (unknown origin) transfected in mouse Ba/F3 cells assessed as reduction in cell viability incubated for 48 hrs by brightglo-luciferase reporter gene assay"}, "[34]": {"experiment": "Inhibition of PDGFRalpha (unknown origin) transfected in mouse Ba/F3 cells assessed as reduction in cell viability incubated for 48 hrs by brightglo-luciferase reporter gene assay"}, "[35]": {"experiment": "Inhibition of KIF5B-RET V804M mutant (unknown origin) transfected in mouse Ba/F3 cells assessed as reduction in cell viability incubated for 48 hrs by brightglo-luciferase reporter gene assay"}},
  "data": [
    {"smiles": "COc1ccc(-c2cnn3c(N)c(-c4nccs4)c(OC4CCN(C)CC4)nc23)cc1OC", "values": [
      {"measurement": "IC50", "setting": "[1]", "result": 0.21, "unit": "µM"},
      {"measurement": "IC50", "setting": "[2]", "result": 8.2, "unit": "µM"},
      {"measurement": "IC50", "setting": "[3]", "result": "> 11", "unit": "µM"},
      {"measurement": "IC50", "setting": "[4]", "result": 4.1, "unit": "µM"},
      {"measurement": "IC50", "setting": "[5]", "result": 4.3, "unit": "µM"},
      {"measurement": "IC50", "setting": "[6]", "result": 0.24, "unit": "µM"},
      {"measurement": "IC50", "setting": "[7]", "result": 1.6, "unit": "µM"},
      {"measurement": "IC50", "setting": "[8]", "result": 1.2, "unit": "µM"},
      {"measurement": "IC50", "setting": "[9]", "result": 1.5, "unit": "µM"},
      {"measurement": "IC50", "setting": "[10]", "result": "> 8.7", "unit": "µM"},
      {"measurement": "IC50", "setting": "[11]", "result": "> 11", "unit": "µM"},
      {"measurement": "IC50", "setting": "[12]", "result": "> 11", "unit": "µM"},
      {"measurement": "IC50", "setting": "[13]", "result": "> 11", "unit": "µM"},
      {"measurement": "IC50", "setting": "[14]", "result": 2.4, "unit": "µM"},
      {"measurement": "IC50", "setting": "[15]", "result": "> 11", "unit": "µM"},
      {"measurement": "IC50", "setting": "[16]", "result": "> 11", "unit": "µM"},
      {"measurement": "IC50", "setting": "[17]", "result": "> 11", "unit": "µM"},
      {"measurement": "IC50", "setting": "[18]", "result": "> 10", "unit": "µM"},
      {"measurement": "IC50", "setting": "[19]", "result": 3.8, "unit": "µM"},
      {"measurement": "IC50", "setting": "[20]", "result": "> 11", "unit": "µM"},
      {"measurement": "IC50", "setting": "[21]", "result": "> 11", "unit": "µM"},
      {"measurement": "IC50", "setting": "[22]", "result": 0.77, "unit": "µM"},
      {"measurement": "IC50", "setting": "[23]", "result": 0.5, "unit": "µM"},
      {"measurement": "IC50", "setting": "[24]", "result": 3.1, "unit": "µM"},
      {"measurement": "IC50", "setting": "[25]", "result": 3, "unit": "µM"},
      {"measurement": "IC50", "setting": "[26]", "result": 4.9, "unit": "µM"},
      {"measurement": "IC50", "setting": "[27]", "result": 4.4, "unit": "µM"},
      {"measurement": "IC50", "setting": "[28]", "result": 8.7, "unit": "µM"},
      {"measurement": "IC50", "setting": "[29]", "result": "> 11", "unit": "µM"},
      {"measurement": "IC50", "setting": "[30]", "result": "> 11", "unit": "µM"},
      {"measurement": "IC50", "setting": "[31]", "result": "> 11", "unit": "µM"},
      {"measurement": "IC50", "setting": "[32]", "result": 0.12, "unit": "µM"},
      {"measurement": "IC50", "setting": "[33]", "result": 0.041, "unit": "µM"},
      {"measurement": "IC50", "setting": "[34]", "result": 0.009, "unit": "µM"},
      {"measurement": "IC50", "setting": "[35]", "result": 0.61, "unit": "µM"}
    ]}
  ]
}
